# Reference: the supplement of paper PMC10307832
# Legend:
# Experiment in all cases: relative viability (nuclei count vs DMSO), 5 days (fraction); higher = more cells survive
# BEN = system: BEN
# Outline: (§1)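 Relative viability was taken as the ratio of nuclei in treated wells to nuclei in vehicle wells. Lung cancer cell lines in 1536-well plates received compounds by pin tool one day after seeding, either one drug alone or a fixed anchor-drug dose plus five library-drug doses (not always all listed) in √10 steps. Nuclei were counted on 4× images after 5 days of treatment, and values are medians of duplicate plates.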
# CAL-12T = system: CAL-12T
# Outline: as §1
# EKVX = system: EKVX
# Outline: as §1
# HCC-366 = system: HCC-366
# Outline: as §1
# LOU-NH91 = system: LOU-NH91
# Outline: as §1
# LU99A = system: LU99A
# Outline: as §1
# NCI-H1355 = system: NCI-H1355
# Outline: as §1
# NCI-H1395 = system: NCI-H1395
# Outline: as §1
# NCI-H1437 = system: NCI-H1437
# Outline: as §1
# NCI-H1563 = system: NCI-H1563
# Outline: as §1
# NCI-H1650 = system: NCI-H1650
# Outline: as §1
# NCI-H1651 = system: NCI-H1651
# Outline: as §1
# NCI-H1734 = system: NCI-H1734
# Outline: as §1
# NCI-H1755 = system: NCI-H1755
# Outline: as §1
# NCI-H1975 = system: NCI-H1975
# Outline: as §1
# NCI-H2023 = system: NCI-H2023
# Outline: as §1
# NCI-H2085 = system: NCI-H2085
# Outline: as §1
# NCI-H2342 = system: NCI-H2342
# Outline: as §1
# NCI-H358 = system: NCI-H358
# Outline: as §1
# NCI-H441 = system: NCI-H441
# Outline: as §1
# NCI-H460 = system: NCI-H460
# Outline: as §1
# NCI-H838 = system: NCI-H838
# Outline: as §1
smiles,measurement,setting,value
Oc1nc(-c2ccc(C(F)(F)F)cc2)nc2c1CSCC2 [XAV939] + COc1cc2c(Oc3ccc(NC(=O)C4(C(=O)Nc5ccc(F)cc5)CC4)cc3F)ccnc2cc1OCCCN1CCOCC1 [Foretinib] (partner 0.25 µM),relative viability,BEN; first compound 0.08 µM,0.71
same,relative viability,BEN; first compound 0.253 µM,0.631
same,relative viability,BEN; first compound 0.8 µM,0.577
same,relative viability,BEN; first compound 2.53 µM,0.546
same,relative viability,CAL-12T; first compound 0.08 µM,1.06
same,relative viability,CAL-12T; first compound 0.253 µM,1.06
same,relative viability,CAL-12T; first compound 0.8 µM,1.15
same,relative viability,CAL-12T; first compound 2.53 µM,1.09
same,relative viability,EKVX; first compound 0.08 µM,0.876
same,relative viability,EKVX; first compound 0.253 µM,0.628
same,relative viability,EKVX; first compound 0.8 µM,0.675
same,relative viability,EKVX; first compound 2.53 µM,0.793
same,relative viability,HCC-366; first compound 0.08 µM,0.91
same,relative viability,HCC-366; first compound 0.253 µM,0.877
same,relative viability,HCC-366; first compound 0.8 µM,0.933
same,relative viability,HCC-366; first compound 2.53 µM,0.941
same,relative viability,LOU-NH91; first compound 0.08 µM,0.932
same,relative viability,LOU-NH91; first compound 0.253 µM,0.918
same,relative viability,LOU-NH91; first compound 0.8 µM,0.903
same,relative viability,LOU-NH91; first compound 2.53 µM,0.891
same,relative viability,LU99A; first compound 0.08 µM,0.794
same,relative viability,LU99A; first compound 0.253 µM,0.815
same,relative viability,LU99A; first compound 0.8 µM,0.744
same,relative viability,LU99A; first compound 2.53 µM,0.724
same,relative viability,NCI-H1355; first compound 0.08 µM,0.946
same,relative viability,NCI-H1355; first compound 0.253 µM,0.839
same,relative viability,NCI-H1355; first compound 0.8 µM,0.786
same,relative viability,NCI-H1355; first compound 2.53 µM,0.619
same,relative viability,NCI-H1395; first compound 0.08 µM,1.07
same,relative viability,NCI-H1395; first compound 0.253 µM,0.783
same,relative viability,NCI-H1395; first compound 0.8 µM,1
same,relative viability,NCI-H1395; first compound 2.53 µM,0.961
same,relative viability,NCI-H1437; first compound 0.08 µM,1.3
same,relative viability,NCI-H1437; first compound 0.253 µM,1.18
same,relative viability,NCI-H1437; first compound 0.8 µM,1.21
same,relative viability,NCI-H1437; first compound 2.53 µM,0.989
same,relative viability,NCI-H1563; first compound 0.08 µM,1.02
same,relative viability,NCI-H1563; first compound 0.253 µM,0.905
same,relative viability,NCI-H1563; first compound 0.8 µM,0.831
same,relative viability,NCI-H1563; first compound 2.53 µM,0.678
same,relative viability,NCI-H1650; first compound 0.08 µM,1.16
same,relative viability,NCI-H1650; first compound 0.253 µM,1.25
same,relative viability,NCI-H1650; first compound 0.8 µM,1.09
same,relative viability,NCI-H1650; first compound 2.53 µM,0.625
same,relative viability,NCI-H1651; first compound 0.08 µM,0.786
same,relative viability,NCI-H1651; first compound 0.253 µM,0.705
same,relative viability,NCI-H1651; first compound 0.8 µM,0.826
same,relative viability,NCI-H1651; first compound 2.53 µM,0.768
same,relative viability,NCI-H1734; first compound 0.08 µM,0.953
same,relative viability,NCI-H1734; first compound 0.253 µM,0.784
same,relative viability,NCI-H1734; first compound 0.8 µM,0.913
same,relative viability,NCI-H1734; first compound 2.53 µM,0.829
same,relative viability,NCI-H1755; first compound 0.08 µM,0.891
same,relative viability,NCI-H1755; first compound 0.253 µM,0.787
same,relative viability,NCI-H1755; first compound 0.8 µM,0.815
same,relative viability,NCI-H1755; first compound 2.53 µM,0.809
same,relative viability,NCI-H1975; first compound 0.08 µM,0.858
same,relative viability,NCI-H1975; first compound 0.253 µM,0.696
same,relative viability,NCI-H1975; first compound 0.8 µM,0.691
same,relative viability,NCI-H1975; first compound 2.53 µM,0.756
same,relative viability,NCI-H2023; first compound 0.08 µM,0.847
same,relative viability,NCI-H2023; first compound 0.253 µM,0.756
same,relative viability,NCI-H2023; first compound 0.8 µM,0.659
same,relative viability,NCI-H2023; first compound 2.53 µM,0.514
same,relative viability,NCI-H2085; first compound 0.08 µM,1.06
same,relative viability,NCI-H2085; first compound 0.253 µM,1.11
same,relative viability,NCI-H2085; first compound 0.8 µM,0.772
same,relative viability,NCI-H2085; first compound 2.53 µM,0.893
same,relative viability,NCI-H2342; first compound 0.08 µM,1.08
same,relative viability,NCI-H2342; first compound 0.253 µM,0.936
same,relative viability,NCI-H2342; first compound 0.8 µM,0.932
same,relative viability,NCI-H2342; first compound 2.53 µM,0.529
same,relative viability,NCI-H358; first compound 0.08 µM,0.722
same,relative viability,NCI-H358; first compound 0.253 µM,0.596
same,relative viability,NCI-H358; first compound 0.8 µM,0.622
same,relative viability,NCI-H358; first compound 2.53 µM,0.6
same,relative viability,NCI-H441; first compound 0.08 µM,1.15
same,relative viability,NCI-H441; first compound 0.253 µM,0.891
same,relative viability,NCI-H441; first compound 0.8 µM,1.19
same,relative viability,NCI-H441; first compound 2.53 µM,1.02
same,relative viability,NCI-H460; first compound 0.08 µM,1.01
same,relative viability,NCI-H460; first compound 0.253 µM,0.926
same,relative viability,NCI-H460; first compound 0.8 µM,0.999
same,relative viability,NCI-H460; first compound 2.53 µM,0.922
same,relative viability,NCI-H838; first compound 0.08 µM,1.01
same,relative viability,NCI-H838; first compound 0.253 µM,0.957
same,relative viability,NCI-H838; first compound 0.8 µM,0.931
same,relative viability,NCI-H838; first compound 2.53 µM,0.575
